{"source": "paper PMC11521309", "about": "“A novel 4-aminoquinoline chemotype with multistage antimalarial activity and lack of cross-resistance with PfCRT and PfMDR1 mutants” (PLOS Pathogens, 2024)", "key": {"P. falciparum Dd2^3D7 [1]": {"tested_on": "P. falciparum Dd2^3D7", "experiment": "ABS susceptibility, pfcrt-edited line", "assay_type": "cell-based", "conditions": "Plasmodium falciparum", "experimental": "(§1) P. falciparum ABS parasites were cultured at 3% hematocrit in human O^+ RBCs in RPMI-1640 media supplemented with 25 mM HEPES, 50 mg/L hypoxanthine, 2 mM L-glutamine, 0.21% sodium bicarbonate, 0.5% (w/v) AlbuMAXII (Invitrogen) and 10 μg/mL gentamycin. Culture flasks were kept in modular incubator chambers (Billups-Rothenberg) in a 5% O2, 5% CO2, and 90% N2 atmosphere at 37°C. Synchronized ring-stage parasites were obtained by two consecutive rounds of treatment with 5% D-sorbitol in 48-hour intervals. […] This was done by exposing cultures at 1% hematocrit and 0.3% parasitemia in 96-well plates in the presence of drugs in a two-fold 10 or 12-point serial dilution in duplicate along with drug-free controls. After a 72-hour incubation, parasite survival was assessed by flow cytometry on an iQue flow cytometer (Sartorius) using SYBR Green and MitoTracker Deep Red FM (Life Technologies) as nuclear stain and vital dye, respectively. Parasite survival was determined as a percentage relative to drug-free control. IC50 values were interpolated from log concentration versus response curves in Prism 9 (GraphPad Prism Software Inc.)."}, "P. falciparum Dd2^G353V [2]": {"tested_on": "P. falciparum Dd2^G353V", "experiment": "ABS susceptibility, pfcrt-edited line", "assay_type": "cell-based", "conditions": "Plasmodium falciparum", "experimental": "as §1"}, "P. falciparum Dd2^T93S": {"tested_on": "P. falciparum Dd2^T93S", "experiment": "ABS susceptibility, pfcrt-edited line", "assay_type": "cell-based", "conditions": "Plasmodium falciparum", "experimental": "as §1"}, "P. falciparum Dd2^M343L": {"tested_on": "P. falciparum Dd2^M343L", "experiment": "ABS susceptibility, pfcrt-edited line", "assay_type": "cell-based", "conditions": "Plasmodium falciparum", "experimental": "as §1"}, "P. falciparum Dd2^Dd2": {"tested_on": "P. falciparum Dd2^Dd2", "experiment": "ABS susceptibility, pfcrt-edited line", "assay_type": "cell-based", "conditions": "Plasmodium falciparum", "experimental": "as §1"}, "P. falciparum 7G8^C350R": {"tested_on": "P. falciparum 7G8^C350R", "experiment": "ABS susceptibility, pfcrt-edited line", "assay_type": "cell-based", "conditions": "Plasmodium falciparum", "experimental": "as §1"}, "P. falciparum 7G8^F145I": {"tested_on": "P. falciparum 7G8^F145I", "experiment": "ABS susceptibility, pfcrt-edited line", "assay_type": "cell-based", "conditions": "Plasmodium falciparum", "experimental": "as §1"}, "P. falciparum Dd2^I218F": {"tested_on": "P. falciparum Dd2^I218F", "experiment": "ABS susceptibility, pfcrt-edited line", "assay_type": "cell-based", "conditions": "Plasmodium falciparum", "experimental": "as §1"}, "P. falciparum Dd2^F145I": {"tested_on": "P. falciparum Dd2^F145I", "experiment": "ABS susceptibility, pfcrt-edited line", "assay_type": "cell-based", "conditions": "Plasmodium falciparum", "experimental": "as §1"}, "P. falciparum 7G8^7G8": {"tested_on": "P. falciparum 7G8^7G8", "experiment": "ABS susceptibility, pfcrt-edited line", "assay_type": "cell-based", "conditions": "Plasmodium falciparum", "experimental": "as §1"}, "P. falciparum Dd2^H97Y": {"tested_on": "P. falciparum Dd2^H97Y", "experiment": "ABS susceptibility, pfcrt-edited line", "assay_type": "cell-based", "conditions": "Plasmodium falciparum", "experimental": "as §1"}, "[3]": {"tested_on": "P. falciparum Dd2-Polδ Flask 1", "experiment": "ABS susceptibility after resistance selection, recrudescent line", "assay_type": "cell-based, Plasmodium falciparum", "conditions": "for % Parasite survival: Dd2 Pol D Flask 1, rep 1-5", "experimental": "as §1\n(§2) Resistance to LDT-623 was assessed using single-step in vitro resistance selection protocols. […] Dd2-Pol δ is a hypermutable line with two point mutations in DNA polymerase δ that compromise its proofreading activity Cultures were monitored daily by thin blood smears until live parasites were no longer detectable. Drug-containing media was changed daily until parasites cleared, and every other day thereafter. Cultures were passaged once weekly by reducing the volume by 25% and replacing 1/3 of RBCs. Recrudescence monitoring was carried out twice a week by thin blood smears for 60 days. In the event of recrudescence, parasite susceptibility to LDT-623 was tested as described above."}, "[4]": {"tested_on": "P. falciparum Dd2-Polδ Flask 2", "experiment": "ABS susceptibility after resistance selection, recrudescent line", "assay_type": "cell-based, Plasmodium falciparum", "conditions": "for % Parasite survival: Dd2 Pol D Flask 2, rep 1-5", "experimental": "as §1, §2"}, "[5]": {"tested_on": "P. falciparum Dd2-Polδ parent culture", "experiment": "ABS susceptibility after resistance selection, parental line", "assay_type": "cell-based, Plasmodium falciparum", "conditions": "for % Parasite survival: Dd2 Pol D parent, rep 1-5", "experimental": "as §1, §2"}, "P. falciparum FCB": {"tested_on": "P. falciparum FCB", "conditions": "read-out: IC50 FCB; means ± SEM, N 4; ref 2 Sidhu et al. 2006; cited from earlier work"}, "P. falciparum NF10^NF": {"tested_on": "P. falciparum NF10^NF", "parameters": "method as in ref 1 Veiga et al. 2016", "conditions": "means ± SEM, N 6; ref 1 Veiga et al. 2016; read-out: IC50 NF10NF; cited from earlier work"}, "P. falciparum Dd2^3D7 [6]": {"tested_on": "P. falciparum Dd2^3D7", "parameters": "key: S: sensitive; R: resistant", "conditions": "ref [19],[20],[51]; cited from earlier work"}, "P. falciparum Dd2^G353V [7]": {"tested_on": "P. falciparum Dd2^G353V", "parameters": "key to Phenotype, Dd2^G353V: S: sensitive; R: resistant", "conditions": "cited from earlier work"}}, "note": "Values joined by “and” are separate entries in the source; they are usually repeats but may differ in a detail not shown here. Equal values may be shown once. Read-outs that look alike come from different tables or passages of the source."}
{"smiles": "COc1cc2nccc(Nc3cccc(Oc4ccccc4)c3)c2cc1OC", "note": "[LDT-623]", "values": [{"measurement": "IC50", "setting": "P. falciparum Dd2^3D7 [1]", "value": "232 ± 10.5", "unit": "nM"}, {"measurement": "IC90", "setting": "P. falciparum Dd2^3D7 [1]", "value": "455 ± 51.1", "unit": "nM"}, {"measurement": "IC50", "setting": "P. falciparum Dd2^G353V [2]", "value": "456 ± 9.6", "unit": "nM"}, {"measurement": "IC90", "setting": "P. falciparum Dd2^G353V [2]", "value": "6510 ± 1540", "unit": "nM"}, {"measurement": "IC50", "setting": "P. falciparum Dd2^T93S", "value": "227 ± 9", "unit": "nM"}, {"measurement": "IC90", "setting": "P. falciparum Dd2^T93S", "value": "429 ± 41.7", "unit": "nM"}, {"measurement": "IC50", "setting": "P. falciparum Dd2^M343L", "value": "416 ± 50", "unit": "nM"}, {"measurement": "IC90", "setting": "P. falciparum Dd2^M343L", "value": "6860 ± 333", "unit": "nM"}, {"measurement": "IC50", "setting": "P. falciparum Dd2^Dd2", "value": "452 ± 31", "unit": "nM"}, {"measurement": "IC90", "setting": "P. falciparum Dd2^Dd2", "value": "6340 ± 1660", "unit": "nM"}, {"measurement": "IC50", "setting": "P. falciparum 7G8^C350R", "value": "576 ± 49.4", "unit": "nM"}, {"measurement": "IC90", "setting": "P. falciparum 7G8^C350R", "value": "4050 ± 3080", "unit": "nM"}, {"measurement": "IC50", "setting": "P. falciparum 7G8^F145I", "value": "439 ± 22.7", "unit": "nM"}, {"measurement": "IC90", "setting": "P. falciparum 7G8^F145I", "value": "6570 ± 3250", "unit": "nM"}, {"measurement": "IC50", "setting": "P. falciparum Dd2^I218F", "value": "435 ± 20.1", "unit": "nM"}, {"measurement": "IC90", "setting": "P. falciparum Dd2^I218F", "value": "3980 ± 1680", "unit": "nM"}, {"measurement": "IC50", "setting": "P. falciparum Dd2^F145I", "value": "541 ± 83.7", "unit": "nM"}, {"measurement": "IC90", "setting": "P. falciparum Dd2^F145I", "value": "3790 ± 1730", "unit": "nM"}, {"measurement": "IC50", "setting": "P. falciparum 7G8^7G8", "value": "579 ± 67.5", "unit": "nM"}, {"measurement": "IC90", "setting": "P. falciparum 7G8^7G8", "value": "980 ± 133", "unit": "nM"}, {"measurement": "IC50", "setting": "P. falciparum Dd2^H97Y", "value": "416 ± 59.6", "unit": "nM"}, {"measurement": "IC90", "setting": "P. falciparum Dd2^H97Y", "value": "5270 ± 99.2", "unit": "nM"}, {"measurement": "% Parasite survival", "setting": "[3]; 0.09 uM", "value": "100.00% and 83.53% and 90.04% and 99.83%"}, {"measurement": "% Parasite survival", "setting": "[3]; 0.19 uM", "value": "92.44% and 73.57% and 80.08% and 80.97% and 100.00%"}, {"measurement": "% Parasite survival", "setting": "[3]; 0.78 uM", "value": 0.00, "unit": "%"}, {"measurement": "% Parasite survival", "setting": "[3]; 1.56 uM", "value": "0.00% and 1.04%"}, {"measurement": "% Parasite survival", "setting": "[3]; 50 uM", "value": "0.00% and 0.35%"}, {"measurement": "mean AUC of survival curve", "setting": "[3]; recrudescent parasites, Flask 1", "value": 53.8}, {"measurement": "% Parasite survival", "setting": "[4]; 0.09 uM", "value": "88.00% and 80.84% and 100.00% and 86.03%"}, {"measurement": "% Parasite survival", "setting": "[4]; 0.19 uM", "value": "82.04% and 70.05% and 89.31% and 86.03% and 100.00%"}, {"measurement": "% Parasite survival", "setting": "[4]; 0.78 uM", "value": "0.00% and 7.11% and 0.21%"}, {"measurement": "% Parasite survival", "setting": "[4]; 1.56 uM", "value": "1.80% and 2.03% and 1.07% and 0.00%"}, {"measurement": "% Parasite survival", "setting": "[4]; 3.12 uM", "value": "7.60% and 5.20% and 3.53% and 0.39% and 7.52%"}, {"measurement": "% Parasite survival", "setting": "[4]; 25 uM", "value": "0.00% and 7.74% and 3.09%"}, {"measurement": "% Parasite survival", "setting": "[4]; 50 uM", "value": "0.00% and 5.80%"}, {"measurement": "mean AUC of survival curve", "setting": "[4]; recrudescent parasites, Flask 2", "value": 22.3}, {"measurement": "mean AUC of survival curve", "setting": "[5]; Dd2-Polδ parent culture", "value": 35.4}, {"measurement": "% Parasite survival", "setting": "[5]; 0.09 uM", "value": "76.35% and 85.80% and 91.78% and 97.25%"}, {"measurement": "% Parasite survival", "setting": "[5]; 0.19 uM", "value": "89.20% and 72.57% and 70.57% and 79.41% and 83.99%"}, {"measurement": "% Parasite survival", "setting": "[5]; 25 uM", "value": "0.00% and 0.89%"}, {"measurement": "% Parasite survival", "setting": "[5]; 50 uM", "value": "0.00% and 1.83%"}]}
{"smiles": "CCN(CC)CCCC(C)Nc1ccnc2cc(Cl)ccc12", "note": "(stereo not shown) [CQ, chloroquine]", "values": [{"measurement": "IC50", "setting": "P. falciparum FCB", "value": "217 ± 34.6", "unit": "nM"}, {"measurement": "IC50", "setting": "P. falciparum NF10^NF", "value": "216 ± 15.3", "unit": "nM"}, {"measurement": "Phenotype, Dd2^3D7", "setting": "P. falciparum Dd2^3D7 [6]", "value": "S"}, {"measurement": "IC50", "setting": "P. falciparum Dd2^G353V [7]; Dd2G353V, mean ± SEM, ref 1 (Ross et al., 2018)", "value": "54.6 ± 4.9", "unit": "nM"}, {"measurement": "Phenotype, Dd2^G353V", "setting": "P. falciparum Dd2^G353V [7]; ref [19],[20],[51]", "value": "S"}]}
